Test results taken from patent EP2923697B1, “Extract and novel isolated compound from Aspergillus terreus for treatment of mouth microbial infections” (King Saud University, priority 2014, dated 2015).
Values after ≈ are worked out from the molar mass of the structure shown.

Tests used:
Format in all cases: cell-based
[1] = tested on: Candida albicans; assay: Antimicrobial activity, well diffusion method; settings: 5mg/ml of sample around well (6 mm), mean ± Standard deviation
Source text: (§1) Mouth microbial representatives including unicellular fungi; Candida albicans (RCMB 05382), Candida glabrata (RCMBA 05386), Candida parapsilosis (RCMBA 06002), Candida tropicalis (RCMB 05384), Gram-positive bacteria; Lactobacillus acidophilus (RCMBA 4267), Streptococcus gordonii (RCMBA 2004), Streptococcus mutans (RCMBA 4131), and Gram-negative bacteria; Pseudomonas aeruginosa (RCMBA 1002) were obtained from the Regional Center for Mycology and Biotechnology (RCMB), Al-Azhar University, Cairo, Egypt, as test organisms. Antimicrobial activity was determined by the well diffusion method. Petri plates contained 20 ml of Nutrient (for bacteria) or Malt extract (for fungi). Agar medium were seeded with 1-3 day cultures of microbial inoculums (1-2 X 10^7 CFU/ml). […] The assessment of antimicrobial activity was based on measurement of the diameter of the inhibition zone formed around the well.

[2] = tested on: Candida parapsilosis; assay: Antimicrobial activity, well diffusion method; settings: 5mg/ml of sample around well (6 mm), mean ± Standard deviation
Source text: as §1

[3] = tested on: Candida glabrata; assay: Antimicrobial activity, well diffusion method; settings: 5mg/ml of sample around well (6 mm), mean ± Standard deviation
Source text: as §1

[4] = tested on: Candida tropicalis; assay: Antimicrobial activity, well diffusion method; settings: 5mg/ml of sample around well (6 mm), mean ± Standard deviation
Source text: as §1

[5] = tested on: Candida parapsilosis; assay: MIC determination, micro-dilution method; settings: Lodderomyces parapsilosis, read-out: Minimum Inhibitory Concentration
Source text: (§2) Mouth microbial representatives including unicellular fungi; Candida albicans (RCMB 05382), Candida glabrata (RCMBA 05386), Candida parapsilosis (RCMBA 06002), Candida tropicalis (RCMB 05384), Gram-positive bacteria; Lactobacillus acidophilus (RCMBA 4267), Streptococcus gordonii (RCMBA 2004), Streptococcus mutans (RCMBA 4131), and Gram-negative bacteria; Pseudomonas aeruginosa (RCMBA 1002) were obtained from the Regional Center for Mycology and Biotechnology (RCMB), Al-Azhar University, Cairo, Egypt, as test organisms.
(§3) The minimum inhibitory concentration (MIC) was determined by micro-dilution method using serially diluted (2 folds) extract and isolated compound. MIC of the extract was determined by dilution of extract and isolated compound of concentrations of 0.0-1000 µg/ml. Equal volume of each extract and nutrient broth were mixed in a test tube. Specifically 0.1 ml of standardized inoculum (1-2 X 10^7 CFU/ml) was added in each tube. The tubes were incubated at 37°C for 24-48 h. Two control tubes containing the growth medium, saline and the inoculum were maintained for each test batch. The lowest concentration (highest dilution) of the extract that produced no visible microbial growth (no turbidity) when compared with the control tubes were regarded as MIC.

[6] = tested on: Candida glabrata; assay: MIC determination, micro-dilution method; settings: Nakaseomyces glabratus, read-out: Minimum Inhibitory Concentration
Source text: as §2, §3

[7] = tested on: Candida tropicalis; assay: MIC determination, micro-dilution method; settings: read-out: Minimum Inhibitory Concentration
Source text: as §2, §3

[8] = tested on: Candida albicans; assay: In-vitro activity in combination with Coe-Comfort tissue conditioner, CFU count; settings: for No. colony-forming units (CPU): Candida albicans, mixed with Coe-Comfort
Method: The Coe-Comfort tissue conditioner was mixed according to the proportions indicated by the manufacturers. In detail, Coe-comfort™ tissue conditioner is formed by dispensing 5 ml of Coe-comfort liquid into a disposable mixing cup. The red measure level is filled with about 6 g of Coe-comfort powder and is then slowly added to the liquid. The obtained mixture is blended for 30 seconds and setted aside for approximately one minute until it flows sluggishly from a spatula. Using less liquid gives a thicker, faster setting mix and vice versa. […] The extract and isolated compound/conditioner mixture was homogenized in a sterile glass beaker for 30 seconds. Immediately afterwards, the conditioning powder was added and mixed for 40 seconds and then poured onto a Petri plate. Once the mixture solidified, the surface was covered with 4 ml of Sabouraud agar, and after 30 minutes, inoculated with 20 µl of an appropriate dilution of Candida. The plates were incubated at 37°C for 24 hours and then the CFUs were counted. The experiment was performed in triplicate. For the conditioner Coe-Comfort, the control was unmodified conditioner.

MIC [5]: 0.49 µg/mL (≈ 0.53 µM)
MIC [6]: 1.95 µg/mL (≈ 2.11 µM)
MIC [7]: 0.12 µg/mL (≈ 0.13 µM)
SMILES: C[C@@H]1[C@H](O)[C@@H](C)/C=C/C=C/C=C/C=C/C=C/C=C/C=C/[C@H](O[C@@H]2O[C@H](C)[C@@H](O)[C@H](N)[C@@H]2O)C[C@@H]2O[C@](O)(C[C@@H](O)C[C@@H](O)[C@H](O)CC[C@@H](O)C[C@@H](O)CC(=O)O[C@H]1C)C[C@H](O)[C@H]2C(=O)O [Amphotericin B, reference compound]
Diameter of inhibition zone [1]: 21.3± 0.14 mm
Diameter of inhibition zone [2]: 23.2 ± 0.53 mm
Diameter of inhibition zone [3]: 20.4± 0.87 mm
Diameter of inhibition zone [4]: 24.6± 0.27 mm
concentration giving total growth inhibition ([8]; C. albicans, in combination with Coe-comfort tissue conditioner): 7.81 µg/mL
No. colony-forming units (CPU) ([8]; concentration 000.49 µg/ml): 9.1 x 10^4
No. colony-forming units (CPU) ([8]; concentration 000.98 µg/ml): 8.9 x 10^4
No. colony-forming units (CPU) ([8]; concentration 001.95 µg/ml): 9.3 x 10^3
No. colony-forming units (CPU) ([8]; concentration 003.90 µg/ml): 8.1 x 10^2
No. colony-forming units (CPU) ([8]; concentration 007.81 µg/ml): 00.00
No. colony-forming units (CPU) ([8]; concentration 015.63 µg/ml): 00.00
No. colony-forming units (CPU) ([8]; concentration 031.25 µg/ml): 00.00
No. colony-forming units (CPU) ([8]; concentration 062.50 µg/ml): 00.00
